EP2557075A1, “New triazene compounds for treating cancer” (Trin Therapeutics GmbH, priority 2011, dated 2013)
“Also recorded” adds a separate entry of the source. Where two headings read alike, the source gives them in different places.

How the values were obtained:
[1] = system: drei Pankreaskrebszelllinien; experiment: IC50 of triazenes in three pancreatic cancer cell lines (Experiment 4); type: cell-based
From the text: Verschiedene Triazene wie erfindungsgemäße Verbindungen nach Beispiel 1, DTIC, TMZ sowie Verbindungen nach Präparat 2 und 5 (entsprechend Verbindungen nach Präparat 2 und Beispiel 2a jeweils der WO 2009/004060) sowie Verbindungen nach Beispiel 2 und 33 der DE1793115 wurden in DMSO bzw. Wasser gelöst.

CEM = experiment: Growth inhibition (IC50) in leukaemic CEM cells (Experiment 7); type: cell-based; details: Homo sapiens, CCRF-CEM, 24 Stunden
From the text: Hämatologische Zellen (CEM, HL-60) wurden für 24 Stunden mit unterschiedlichen Dosen verschiedener Triazenverbindungen inkubiert, um die IC50 zu bestimmen.

[2] = system: MCF-7, MB-231, HepG2, HCT8, DU-145; experiment: IC50 of triazenes in various tumour cell lines (Experiment 3); type: cell-based
From the text: (§1) Die nachfolgenden Experimente 3 und 4 zeigen, dass die erfindungsgemäßen neuen Triazenverbindungen eine vergleichbare Anti-Tumorwirkung (IC50) in zahlreichen Krebszelllinien wie der HepG2 (Leber), HCT8 (Darm), DU-145 (Prostata), MCF-7 und MDA-MB-231 (Brust) und MiaPaca-2 (Bauchspeicheldrüse) bei bis zu 100fach niedrigeren Konzentrationen zeigen als vergleichbare Triazene wie DTIC, TMZ oder Substanzen wie sie in der WO 2009/004060 und der DE 1 7931 1 5 beschrieben sind.
(§2) Verschiedene Triazene wie erfindungsgemäße Verbindungen nach Beispiel 1, DTIC, TMZ sowie Verbindungen nach Präparat 2 und 5 (entsprechend Verbindungen nach Präparat 2 und Beispiel 2a jeweils der WO 2009/004060) sowie Verbindungen nach Beispiel 33 der DE1793115 wurden in DMSO bzw. Wasser gelöst.

MDA-MB231 [3] = experiment: IC50 of triazenes in MDA-MB231 cell line (Experiment 3); type: cell-based; details: Homo sapiens, MDA-MB-231; IC50 für die MDA-MB231 gemäß Experiment 3; used as incubation concentration for PBC
From the text: as §1, §2
Periphäre Blutzellen (PBC) werden jeweils mit der IC50 für die MDA-MB231 gemäß Experiment 3 der entsprechenden Substanzen inkubiert. Es wird gezeigt, dass die erfindungsgemäße Verbindung nach Beispiel 1 nicht mehr DNA-Schädigungen in den PBC erzeugt als eine Negativkontrolle, […]

HepG2 = experiment: Intracellular uptake of triazenes in HepG2 cells (Experiment 2); type: in vitro ADME; details: HepG2, 50.000ng/ml, 10.000ng/ml O6-Benzylguanin, 2, 4 und 20 Stunden
Experimental: (§3) Es wird gezeigt, dass Verbindungen nach Beispiel 1 schneller und in größerer Menge intrazellulär aufgenommen werden als die als Vergleichssubstanzen eingesetzten Verbindungen nach Präparat 2 und 5 (entsprechend Verbindungen nach Präparat 2 und Beispiel 2a jeweils der WO 2009/004060).
(§4) Die getesteten Verbindungen wurden wie folgt gelöst: • Erfindungsgemäße Verbindung: • Beispiel 1: in 20 mg/ml DMSO
(§5) Vergleichssubstanzen: • Präparat 2: in 50mg/ml DMSO, • Präparat 5: in 50mg/ml Wasser.
(§6) Alle drei Substanzen wurden in einer Dosis von 50.000ng/ml auf 2 x 10^7 HepG2 und HCT-8 sowie 2 x 10^6-MDA-MB231 Zellen gegeben. Als Zellkulturmedium wurde 100% (MDA-MB231: 50%) fötales Kälberserum (FCS) verwendet. Zudem wurde bei den Versuchen mit HepG2 und HCT-8 noch 10.000ng/ml O6-Benzylguanin zugesetzt. Für den Versuch wurde die intrazelluläre Konzentration von Ausgangsprodukt und Metaboliten nach 2, 4 und 20 (HepG2), 2 und 3,5 und 20 Stunden (MDA-MB231) und 2,4, 24 und 48 Stunden (HCT-8) Inkubationszeit ermittelt. Alle drei Substanzen zeigten in Kontrollversuchen mit 100% FCS nach 40 Stunden metabolische Stabilität.

MCF-7-Zellen = experiment: Intracellular metabolisation of triazenes in MCF-7 cell culture (Experiment 1); type: in vitro ADME; details: MCF-7, 100nmol/ml, 100% FCS
Experimental: Es wird gezeigt, dass Verbindungen nach Beispiel 1 schneller und in größerer Menge intrazellulär metabolisiert werden als die als Vergleichssubstanzen eingesetzten Verbindungen nach Präparat 2 und 5 (entsprechend Verbindungen nach Präparat 2 und Beispiel 2a jeweils der WO 2009/004060).
Die getesteten Verbindungen wurden wie folgt gelöst: • Erfindungsgemäße Verbindung: • Beispiel 1 : in 20 mg/ml DMSO
as §5
Alle drei Substanzen wurden äquimolar in einer Dosis von 100nmol/ml auf 1 x 10^7 HepG2 bzw. MCF-7-Zellen gegeben. Als Zellkulturmedium wurde 100% fötales Kälberserum (FCS) verwendet. Für den Versuch wurde der Gehalt aus Ausgangsprodukt und Metaboliten im Zellüberstand nach 1, 3 und 6 (HepG2) bzw. 1,3 und 20 Stunden (MCF-7) Inkubationszeit ermittelt. Alle drei Substanzen zeigten in Kontrollversuchen mit 100% FCS nach 40 Stunden metabolische Stabilität.

MDA-MB231 [4] = experiment: Cell cycle analysis by flow cytometry in MDA-MB231 (Experiment 9); type: cell-based; details: MDA-MB231, incubated with IC50, nach 10 bzw. 24 Stunden
From the text: Die Progression durch den Zellzyklus ist charakterisiert durch die mitotische Teilung (M-Phase) und der sich anschließenden Interphase, Die Interphase gliedert sich wiederum in die G1 -, S- und G2-Phase, In der G1-Phase beginnt die Zelle zu wachsen und es liegt ein vollständiger Chromosomensatz vor. In der S-Phase erfolgt die Replikation der DNA, wodurch an ihrem Ende der zweifache Chromosomensatz vorliegt. In der G2-Phase bereitet sich die Zelle auf die mitotische Teilung vor, an dessen Ende wieder der einfache Chromosomensatz vorhanden ist. Zusätzlich zu diesen Phasen kann eine sog. sub-G1-Phase vorliegen. Diese ist charakterisiert durch fragmentierte, apoptotische Zellen, die durch degradierte DNA charakterisiert ist. In welchem Stadium sich die Zelle befindet bzw. arretiert sein kann, lässt sich mittels Durchflusszytometrie bestimmen (Brockhoff et al. 2007; Lenz et al. 2007).
Zellkulturen von MDA-MB231 bzw. HL-60 wurden mit der IC50 (MDA-MB231) bzw. IC90 (HL-60) der beiden Test-Substanzen für bis zu 72 Stunden inkubiert und auf die Zellzyklusentwicklung hin untersucht.

HCT-8 = experiment: Intracellular uptake of triazenes in HCT-8 cells (Experiment 2); type: in vitro ADME; details: HCT-8, 50.000ng/ml, 10.000ng/ml O6-Benzylguanin, first two time points (2, 4 Stunden)
Experimental: as §3, §4, §5, §6

Compound: CN(C)N=Nc1ccc(C(=O)c2ccc(O)cc2)cc1 [Beispiel 1]
- antitumorale Aktivität (IC50) compared with Vergleichssubstanzen [1]: deutliche Überlegenheit
- IC50 (CEM; mean of Exp. 1-4, read-out: IC50 Mittelwert): 22.8 µM
- IC50 (CEM; read-out: IC50 Exp. 1): 23.4 µM
- IC50 (CEM; read-out: IC50 Exp. 2): 29.7 µM
- IC50 (CEM; read-out: IC50 Exp. 3): 23.8 µM
- IC50 (CEM; read-out: IC50 Exp. 4): 14.1 µM
- antitumorale Aktivität (IC50) compared with other triazenes [2]: deutlich wirksamer; also recorded: höhere antitumorale Aktivität
- IC50 (MDA-MB231 [3]): 27.5 µM
- intrazelluläre Konzentration vs. Vergleichssubstanzen (HepG2): deutlich schneller und in höheren Konzentrationen intrazellulär nachweisbar
- metabolisiert (MCF-7-Zellen; innerhalb von 1 Stunde): mehr als der Hälfte
- metabolisiert (MCF-7-Zellen; nach 3 Stunden): vollständig metabolisiert
- Zellzyklus (MDA-MB231 [4]): ausgeprägten G2 Arrest nach 10 bzw. 24 Stunden und massivem Zelltod (SubG1)
- intrazelluläre Konzentration vs. Vergleichssubstanzen (HCT-8): deutlich schneller und für die ersten beiden Messpunkte auch in höherer Konzentration intrazellulär nachweisbar
